The source of these data is US8067459B2, “Lapachone compounds and methods of use thereof” (ArQule, Inc., priority 2007, dated 2011).

The structures appear in SMILES notation. Read-outs that look alike come from different tables or passages of the source. Some results are limits rather than exact numbers.

Data set [1] relates to DLD-1 human colon carcinoma cells. The data set is described as follows: MTS cell viability assay, DLD-1 colon carcinoma cells. The data set is classed as cell-based. To be noted: read-out: IC50 Values, Cancerous Cells, Colon DLD-1. Here is the method: (§1) Cell viability was determined by measuring the activity of dehydrogenase enzymes in metabolically active cells using a tetrazolium compound, MTS. The assay was performed as described in Promega Technical Bulletin No. 169 (CellTiter 96 Aqueous Non-Radioactive Cell Proliferation Assay): All cells lines were grown in DMEM media (4.5 g/L glucose) supplemented with 15% heat-inactivated FBS, 10 mM L-glutamine, and 10 mM HEPES. Briefly, cells were seeded in 96-well plates and incubated for 16 to 24 hours; test compounds were serially diluted in DMSO, further diluted in cell culture media, then added to cells (final DMSO concentration of 0.33% v/v); cells were incubated in the presence of compound for 4 hours; MTS was added to the cells and incubated for four hours; SDS was added to a final concentration of 1.4% v/v and absorbance at 490 nm was measured within two hours using a plate reader. The amount of […] absorbance was directly proportional to the number of living cells in the culture.
(§2) The assays of the present invention as shown in Table 1 and methods of measuring induction of E2F1 activity and elevation of E2F1 levels can be carried out following the descriptions found in Li et al., (2003) Proc Natl Acad Sci USA. 100(5): 2674-8 and U.S. Patent Application Publication No. 2002/0169135, both incorporated herein by reference.
Background: Tetrazolium assays rely on reduction of a dye to a coloured formazan, in cell work by metabolically active cells.

Data set [2] concerns A549 human lung carcinoma cells. Put plainly: MTS cell viability assay, A549 lung carcinoma cells. The data set is classed as cell-based. As to conditions: read-out: IC50 Values, Cancerous Cells, Lung A549. Here is the method: as §1, §2
Data set [3] relates to NCM-460 normal colon epithelial cells. The data set is described as follows: MTS cell viability assay, NCM-460 normal colon cells. The data set is classed as cell-based. To be noted: for IC50: Homo sapiens, read-out: IC50 Values, Normal Cells, Colon NCM-460; for Fold Selectivity (NCM-460/DLD1): ratio of IC50 NCM-460 to IC50 DLD-1. The procedure: Since β-lapachone induces cell death only in cancer cell lines and not in normal cells (Li et al., (2003) Proc Natl Acad Sci USA. 100(5): 2674-8), the present compounds were also tested in a panel of normal cell lines from a variety of tissues including NCM-460 normal colon epithelial cells.
as §1, §2

The test system of data set [4] is PACA-2 human pancreatic carcinoma cells. The data set is described as follows: MTS cell viability assay, PACA-2 pancreatic carcinoma cells. The data set is classed as cell-based. To be noted: read-out: IC50 Values, Cancerous Cells, Pancreas PACA-2. Here is the method: as §1, §2
The subject of data set [5] is K-562 human leukemia cells. The data set is described as follows: MTS cell viability assay, K-562 leukemia cells. The data set is classed as cell-based. As to conditions: read-out: IC50 Values, Cancerous Cells, Leukemia K-562. Here is the method: as §1, §2
In data set [6] the test system is DU-145 human prostate carcinoma cells. The data set is described as follows: MTS cell viability assay, DU-145 prostate carcinoma cells. The data set is classed as cell-based. To be noted: read-out: IC50 Values, Cancerous Cells, Prostate DU-145. The procedure:
as §1, §2

The next data set deals with E2F1 checkpoint pathway. To be noted: earlier studies with β-lapachone; cited from earlier work.
The next data set has as its system human cancer cell lines. As to conditions: single agent; typical range; read-out: antineoplastic activity against human cancer cell lines (IC50); cited from earlier work.
Data set [7] relates to normal fresh or proliferating human PBMC. To be noted: cited from earlier work.
Where [8] appears, read: DLD-1, 4 hours with compound, MTS.
The mark [9] stands for this setting: A549, 4 hours with compound, MTS.
Setting [10] is: NCM460, NCM-460, 4 hours with compound, MTS.
[11] abbreviates: PACA-2, 4 hours with compound, MTS.
[12] abbreviates: K562, K-562, 4 hours with compound, MTS.
Setting [13] is: DU-145, 4 hours with compound, MTS.

As to `COC(=O)C1(C)CSC2=C(O1)c1ccccc1C(=O)C2=O` (stereo not shown), the melting point (commonly the temperature of the solid-liquid transition) is 188 to 189 °C.
As to `CCOC(=O)N1CCN(CC2CSC3=C(O2)c2ccccc2C(=O)C3=O)CC1` (stereo not shown) [Compound 1, ethyl 4-[(5,6-dioxo-2,3,5,6-tetrahydronaphtho[1,2-b][1,4]oxathiin-2-yl)methyl]piperazine-1-carboxylate], the IC50 (in general, the point on the concentration scale where inhibition reaches its midpoint) in data set [1] (setting [8]) is 1.84 µM; in data set [2] (setting [9]) it was 4.77 µM; in data set [3] (setting [10]), 4.78 µM; in data set [4] (setting [11]) it was 1.95 µM; in [5] (setting [12]), 2.93 µM; in data set [6] (setting [13]) it was 4.01 µM. For the same compound, in [3], the “Fold Selectivity (NCM-460/DLD1)” value is given as 2.6.
As to `O=C1C(=O)c2ccccc2C2=C1SCC(CN1CCC(CO)CC1)O2` (stereo not shown) [Compound 2, 2-{[4-(hydroxymethyl)piperidin-1-yl]methyl}-2,3-dihydronaphtho[1,2-b][1,4]oxathiine-5,6-dione], the 50% inhibitory concentration (IC50) in data set [1] (setting [8]) worked out at 2.05 µM; in [2] (setting [9]) it was 11.7 µM; in data set [3] (setting [10]), 10.8 µM; in [4] (setting [11]), 1.64 µM; in data set [5] (setting [12]), 2.84 µM; in data set [6] (setting [13]), 3.88 µM. Also, in data set [3], the “Fold Selectivity (NCM-460/DLD1)” value is 5.3.
In turn, `O=C1C(=O)c2ccccc2C2=C1SCC(CN1CCC(O)CC1)O2` (stereo not shown) [Compound 3, 2-[(4-hydroxypiperidin-1-yl)methyl]-2,3-dihydronaphtho[1,2-b][1,4]oxathiine-5,6-dione] came in with a melting point of 98 to 100 °C.
Same read-out and setting: the result for `COC(CN(C)CC1CSC2=C(O1)c1ccccc1C(=O)C2=O)OC` (stereo not shown) [Compound 4, 2-{[(2,2-dimethoxyethyl)(methyl)amino]methyl}-2,3-dihydronaphtho[1,2-b][1,4]oxathiine-5,6-dione] reads 80 to 82 °C.
On to `O=C1C(=O)c2ccccc2C2=C1SCC(CN1CCN(c3ccc(F)cc3)CC1)O2` (stereo not shown) [Compound 5, -{[4-(4-fluorophenyl)piperazin-1-yl]methyl}-2,3-dihydronaphtho[1,2-b][1,4]oxathiine-5,6-dione], for which the half-maximal inhibitory concentration (IC50) in [1] (setting [8]) stood at 1.57 µM; in data set [2] (setting [9]) it was 4.79 µM; in data set [3] (setting [10]), 9.83 µM; in [4] (setting [11]) it was 1.34 µM; in data set [5] (setting [12]) it was 2.68 µM; in data set [6] (setting [13]), 1.49 µM. Also, the “Fold Selectivity (NCM-460/DLD1)” value in data set [3] is 6.3.
For the compound `O=C1C(=O)c2ccccc2C2=C1SCC(CNCCc1ccccc1)O2` (stereo not shown) [Compound 6, 2-{[(2-phenylethyl)amino]methyl}-2,3-dihydronaphtho[1,2-b][1,4]oxathiine-5,6-dione], the IC50 in [1] (setting [8]) was found to be 4.01 µM; in [2] (setting [9]), 12.9 µM; in data set [3] (setting [10]), 17.1 µM; in data set [4] (setting [11]), 3.78 µM; in data set [5] (setting [12]), 5.29 µM; in [6] (setting [13]), 4.67 µM. Also, the “Fold Selectivity (NCM-460/DLD1)” value in data set [3] is reported as 4.3.
`O=C1C(=O)c2ccccc2C2=C1SCC(CNCc1ccccc1)O2` (stereo not shown) [Compound 7, 2-[(benzylamino)methyl]-2,3-dihydronaphtho[1,2-b][1,4]oxathiine-5,6-dione]: the 50% inhibitory concentration (IC50) in data set [1] (setting [8]) came to 2.95 µM; in [2] (setting [9]), 11.3 µM; in [3] (setting [10]), 11.4 µM; in data set [4] (setting [11]) it was 2.75 µM; in [5] (setting [12]), 3.89 µM; in data set [6] (setting [13]), 4.22 µM. Besides, the “Fold Selectivity (NCM-460/DLD1)” value in [3] is given as 3.9.
Compound `CC(C)NC(=O)CN1CCN(CC2CSC3=C(O2)c2ccccc2C(=O)C3=O)CC1` (stereo not shown) [Compound 8, 2-{4-[(5,6-dioxo-2,3,5,6-tetrahydronaphtho[1,2-b][1,4]oxathiin-2-yl)methyl]piperazin-1-yl}-N-isopropylacetamide] registered a melting point of 85 to 87 °C.
`O=C1C(=O)c2ccccc2C2=C1SCC(CN1CCC3(CC1)OCCO3)O2` (stereo not shown) [Compound 9, 2-(1,4-dioxa-8-azaspiro[4.5]dec-8-ylmethyl)-2,3-dihydronaphtho[1,2-b][1,4]oxathiine-5,6-dione] returned a melting point of 202 to 204 °C.
As to `O=C(Nc1ccccc1)OCC1CSC2=C(O1)c1ccccc1C(=O)C2=O` (stereo not shown) [Compound 11, (5,6-dioxo-2,3,5,6-tetrahydronaphtho[1,2-b][1,4]oxathiin-2-yl)methyl phenylcarbamate], the IC50 in [1] (setting [8]) stood at 1.36 µM; in [2] (setting [9]), 5.44 µM; in data set [3] (setting [10]), 7.65 µM; in data set [4] (setting [11]), 2.05 µM; in data set [5] (setting [12]), 2.73 µM; in data set [6] (setting [13]), 4.05 µM. Moreover, the “Fold Selectivity (NCM-460/DLD1)” value in data set [3] turned out to be 5.6.
Take `CC(C)NC(=O)OCC1CSC2=C(O1)c1ccccc1C(=O)C2=O` (stereo not shown) [Compound 12, (5,6-dioxo-2,3,5,6-tetrahydronaphtho[1,2-b][1,4]oxathiin-2-yl)methyl isopropylcarbamate]: the half-inhibitory concentration (IC50) in data set [1] (setting [8]) turned out to be 2.17 µM; in data set [2] (setting [9]), 4.66 µM; in data set [3] (setting [10]), 5.92 µM; in data set [4] (setting [11]) it was 1.68 µM; in data set [5] (setting [12]) it was 1.51 µM; in data set [6] (setting [13]), 3.72 µM. Further, the “Fold Selectivity (NCM-460/DLD1)” value in [3] was determined as 2.7.
In the case of `CCCC1CCOC2=C(S1)C(=O)C(=O)c1ccccc12` (stereo not shown) [Compound 13, 4-propyl-3,4-dihydro-2H-naphtho[1,2-b][1,4]oxathiepine-6,7-dione], the half-maximal inhibitory concentration (IC50) is 12.9 µM in [1] (DLD-1, 4 h); above 100 µM in data set [2] (A549, 4 h); 18.6 µM in data set [3] (NCM460, 4 h); 12.1 µM in [4] (PaCa-2, 4 h); 10.9 µM in [5] (K562, 4 h); 13.2 µM in data set [6] (DU-145, 4 h). In data set [3], the “Fold Selectivity (NCM-460/DLD1)” value amounted to 1.4.
`CC1CSC2=C(O1)c1cc(-c3ccccc3)ccc1C(=O)C2=O` (stereo not shown) [Compound 14, 2-methyl-9-phenyl-2,3-dihydronaphtho[1,2-b][1,4]oxathiine-5,6-dione]: the half-inhibitory concentration (IC50) is 3.8 µM in data set [1] (setting [8]); above 100 µM in data set [2] (setting [9]); 10.1 µM in [3] (setting [10]); 3.39 µM in data set [4] (setting [11]); 4.61 µM in [5] (setting [12]); 3.79 µM in data set [6] (setting [13]). Further, the “Fold Selectivity (NCM-460/DLD1)” value in [3] turned out to be 2.7.
Take `CC1CSC2=C(O1)c1cc(N3CCCCC3)ccc1C(=O)C2=O` (stereo not shown) [Compound 15, 2-methyl-9-piperidin-1-yl-2,3-dihydronaphtho[1,2-b][1,4]oxathiine-5,6-dione]: the half-inhibitory concentration (IC50) in data set [1] (setting [8]) was 32.8 µM; in [2] (setting [9]), above 100 µM; in data set [3] (setting [10]), 33.6 µM; in data set [4] (setting [11]), 32.4 µM; in [5] (setting [12]), 58.2 µM; in data set [6] (setting [13]), above 100 µM. Moreover, the “Fold Selectivity (NCM-460/DLD1)” value in data set [3] amounted to 1.0.
Turning to `O=C1C(=O)c2ccccc2C2=C1SCC(COc1cccnc1)O2` (stereo not shown) [Compound 17, 2-[(pyridin-3-yloxy)methyl]-2,3-dihydronaphtho[1,2-b][1,4]oxathiine-5,6-dione], the IC50 in data set [1] (setting [8]) turned out to be 2.39 µM; in data set [2] (setting [9]) it was 5.08 µM; in data set [3] (setting [10]), 5.61 µM; in data set [4] (setting [11]) it was 2.04 µM; in [5] (setting [12]), 2.89 µM; in data set [6] (setting [13]), 3.82 µM. Moreover, the “Fold Selectivity (NCM-460/DLD1)” value in data set [3] is given as 2.3.
For `CC1(C)CCC2=C(O1)c1ccccc1C(=O)C2=O` [β-lapachone, 3,4-dihydro-2,2-dimethyl-2H-naphtho[1,2-b]pyran-5,6-dione], the “activation of E2F1 checkpoint pathway in nuclei of cancer cells but not in normal cells” value with E2F1 checkpoint pathway is recorded as “induces activation of E2F1 checkpoint pathway”. The IC50 with human cancer cell lines is 1 to 10 µM. The “cytotoxic effects on normal human PBMC” value in data set [7] was “No cytotoxic effects”.
